Patent publication US6905834B1, “Bioluminescent bioreporter integrated circuit detection methods” (UT-Battelle, LLC, priority 1997, dated 2005)
Like-named read-outs stand apart in the source and are kept apart here.

Legend:
[1] = Adsorption isotherms on calcium alginate; format: physicochemical
Description: Tracer concentrations were measured using a Waters ion-chromatography system with a series 510 HPLC pump, IC-PAK anion exchange column, and 431 conductance detector (Waters, Cam-bridge, MA) or monitored continuously using fluorescence.

P. fluorescens HK44 = format: cell-based, Pseudomonas fluorescens
Excerpt: A previously developed PBR system with on-line instrumentation (Webb, 1992; Webb et al., 1991) was used to measure bacterial degradative and bioluminescent activity under conditions mimicking those of the subsurface. The reactor design is detailed in FIG. 21. The PBR was temperature controlled and fitted with metal frits welded to the inlet and outlet to retain and distribute feed to immobilized cultures. An additional inter-cavity insert allowed the installation of filters (e.g., […] inorganic and polymeric) between the packed bed and outlet frit that filtered the effluent for automatic injection into the on-line high-performance liquid chromatography (HPLC) and that produced a uniform resistance to flow that improved the overall distribution to the reactor (Webb, 1992). […] HPLC pumps supplied media to each reactor from pressurized feed reservoirs. All nutrients, including oxygen, entered the reactor dissolved in the liquid phase. Naphthalene and salicylate were detected with an on-line HPLC using a Vydac TP20154 column (Sep/A/Ra/Tions Group, Hesperia, Calif.) with a FL-4 dual-monochromator fluorescent detector (Perkin-Elmer, Norwalk, Conn.). Respective excitation and emission wavelengths for salicylate detection were 290 and 360 nm. The reactor was fitted with an on-line light detector for monitoring bioluminescent activity (Dunbar, 1992) consisting of a glued fiber bundle (Ensign Bickford Optics, Simsbury, Conn.) placed approximately 2.5 cm from the entrance of the reactor. An Oriel Inc. (Stratford, Conn.) 7070 photomultiplier detection system using a Model 77348 photomultiplier tube (radiant sensitivity of […] near 500 nm) were employed.
Mineral salts media (pH 7.2) consisting of MgSO4 7H2O ([…]), NH4NO3 ([…]), trizma™ base ([…]), MgO (1.0×10^−3 g/l), CaCl2 (2.9×10^−4 g/l), FeCl3.6H2O (5.4×10^−4 g/l), ZnSO4.7H2O (1.4×10^−4 g/l), CuSO4 (2.5×10^−5 g/l), […] (6.2×10^−6 g/l), and Na2MoO4.H2O (4.9×10^−5 g/l) were supplied to the reactor with an appropriate carbon source for degradation and bioluminescence studies. Kinetic bacterial studies were phosphate limited and maintained aerobic by con-trolled pressurization of feeds and the reactor.
The HK44 was prepared for immobilization by adding freshly thawed inoculum (frozen at −70° C. until use) to 100 mL of YEPG media which contained glucose (1.0 g/l), polypeptone (2.0 g/l), yeast extract (0.2 g/l), NH4NO3 (0.2 g/l), and tetracycline (14 mg/l). The culture was shaken for 15 hours at 25° C. and then centrifuged at 8000 rpm for 10 minutes. The pellet was then washed with 0.9% NaCl solution three times before immobilization. The concentration of HK44 was enumerated by measuring optical density at 546 nm. The HK44 was immobilized by suspending bacteria in 0.9% NaCl solution and mixing with a low-viscosity alginate (28 g/L) and NaCl (9 g/L) solution in a ratio of 1:2 by volume. Beads were formed by controlled dropwise addition to 0.1 M CaCl2 solution by a syringe needle installed in an air jet controlled by a precision regulator (Porter Instrument Co., Hatfield, Pa.) and a piece of 0.003-in. (i.d.) tubing. Beads diameters were measured using gentle wet sieving. Alginate beads were dissolved in 50 mM sodium hexametaphosphate. […]

Compound: O=C([O-])c1ccccc1O.[Na+] [Sodium salicylate, sodium salicylate]
- adsorption on calcium alginate (in words) ([1]; listed as Salicylate): did not measurably absorb
- adsorption on calcium alginate (in words) ([1]; listed as salicylate): did not appreciably partition
- least-squares reaction rate constant, overall second order model (P. fluorescens HK44; complete data set, figure legends): 2.23×10^−2 dm^3/g mol
- Salicylate effluent ± σ (P. fluorescens HK44; experiment 1a, biomass 3.3 × 10^9 cells/mL, feed 2.25 mg/L, τ 14 min): 1.43 ± 2.85 × 10^−2 mg/L
- Salicylate effluent ± σ (P. fluorescens HK44; experiment 1b, biomass 3.3 × 10^9 cells/mL, feed 2.25 mg/L, τ 58 min): 0.46 ± 0.84 × 10^−2 mg/L
- Salicylate effluent ± σ (P. fluorescens HK44; experiment 1c, biomass 3.3 × 10^9 cells/mL, feed 2.25 mg/L, τ 14 min): 1.65 ± 4.77 × 10^−2 mg/L
- Salicylate effluent ± σ (P. fluorescens HK44; experiment 2a, biomass 3.5 × 10^9 cells/mL, feed 2.47 mg/L, τ 24 min): 1.03 ± 2.83 × 10^−2 mg/L
- Salicylate effluent ± σ (P. fluorescens HK44; experiment 2b, biomass 3.5 × 10^9 cells/mL, feed 2.47 mg/L, τ 26 min): 0.86 ± 0.93 × 10^−2 mg/L
- Salicylate effluent ± σ (P. fluorescens HK44; experiment 2c, biomass 3.5 × 10^9 cells/mL, feed 2.47 mg/L, τ 94 min): 0.20 + 0.28 × 10^−2 mg/L
- Salicylate effluent ± σ (P. fluorescens HK44; experiment 3a, biomass […] 10^9 cells/mL, feed 4.45 mg/L, τ 15 min): 4.06 ± 8.85 × 10^−2 mg/L
- Salicylate effluent ± σ (P. fluorescens HK44; experiment 3b, biomass […] 10^9 cells/mL, feed 4.45 mg/L, τ 18 min): 3.84 ± 6.99 × 10^−2 mg/L
- Salicylate effluent ± σ (P. fluorescens HK44; experiment 3c, biomass […] 10^9 cells/mL, feed 4.45 mg/L, τ 24 min): 3.42 ± 8.55 × 10^−2 mg/L
- Salicylate effluent ± σ (P. fluorescens HK44; experiment 3f, biomass […] 10^9 cells/mL, feed 4.45 mg/L, τ 24 min): 3.12 ± 4.09 × 10^−2 mg/L
- Salicylate effluent ± σ (P. fluorescens HK44; experiment 4b, biomass […] 10^9 cells/mL, feed 4.45 mg/L, τ 36 min): 2.76 ± 3.95 × 10^−2 mg/L
- Salicylate effluent ± σ (P. fluorescens HK44; experiment 4c, biomass […] 10^9 cells/mL, feed 4.45 mg/L, τ 48 min): 2.25 ± 3.47 × 10^−2 mg/L
- Salicylate effluent ± σ (P. fluorescens HK44; experiment 4e, biomass […] 10^9 cells/mL, feed 4.45 mg/L, τ 150 min): 0.89 ± 1.54 × 10^−2 mg/L
- Salicylate effluent ± σ (P. fluorescens HK44; experiment 4f, biomass […] 10^9 cells/mL, feed 4.45 mg/L, τ 48 min): 2.24 + 3.49 × 10^−2 mg/L
- Salicylate effluent ± σ (P. fluorescens HK44; experiment 3d, biomass […] 10^9 cells/mL, feed 4.45 mg/L, τ 36 min): 2.77 + 4.24 × 10^−2 mg/L
- Salicylate effluent ± σ (P. fluorescens HK44; experiment 4d, biomass […] 10^9 cells/mL, feed 4.45 mg/L, τ 72 min): 1.75 ± 2.03 × 10^−2 mg/L
- salicylate degradation rate constant (first order in biomass, first order in salicylate) (P. fluorescens HK44; fitted to subset 1a-c): 1.88×10^−2 dm^3 g^−1 min^−1
- salicylate degradation rate constant (first order in biomass, first order in salicylate) (P. fluorescens HK44; fitted to subset 2a-c): 2.85×10^−2 dm^3 g^−1 min^−1
- salicylate degradation rate constant (first order in biomass, first order in salicylate) (P. fluorescens HK44; fitted to subset 3a-f): 2.06×10^−2 dm^3 g^−1 min^−1
- salicylate degradation rate constant (first order in biomass, first order in salicylate) (P. fluorescens HK44; fitted to subset 4a-f): 2.28×10^−2 dm^3 g^−1 min^−1
- salicylate degradation rate constant (first order in biomass, first order in salicylate) (P. fluorescens HK44; fitted to the complete set): 2.23×10^−2 dm^3 g^−1 min^−1
- slope of best-fit line, specific light response vs predicted salicylate concentration at the light probe (P. fluorescens HK44; studies 2a-c): 1.4
- slope of best-fit line, specific light response vs predicted salicylate concentration at the light probe (P. fluorescens HK44; studies 3c-e): 2.3
- slope of best-fit line, specific light response vs predicted salicylate concentration at the light probe (P. fluorescens HK44; studies 4c-f): 1.5
- conversion (P. fluorescens HK44; study 1a): 0.64
- conversion (P. fluorescens HK44; study 1c): 0.73
- conversion (P. fluorescens HK44; study 3c): 0.77
- conversion (P. fluorescens HK44; study 3e): 0.41
- conversion (P. fluorescens HK44; study 3f): 0.70
- conversion (P. fluorescens HK44; study 4b): 0.62
- conversion (P. fluorescens HK44; study 4c): 0.50
- conversion (P. fluorescens HK44; study 4f): 0.50
- conversion (P. fluorescens HK44; study 3d): 0.62
- conversion (P. fluorescens HK44; study 4d): 0.39
